The values that follow are results of earlier work, collected in patent US8461086B2, “Microcapsule composition for inhibiting an ethylene response in plants, method for preparing microcapsules, and method using the microcapsule composition” (Lytone Enterprise, Inc., priority 2009, dated 2013).

The test system of one series is plants. To be noted: applied to plants.
In another series the test system is humans and livestock. To be noted: within the effective concentration range.

As to `CC1=CC1` [Example 1-MCP, 1-methylcyclopropene], the effective dosages with plants was 0.1 to 1.0 ppm (vol/vol). Also, the “harm to humans and livestock” value with humans and livestock is on record as “does no harm”.
